Drawing on ChEMBL document CHEMBL1140099, “Identification of BRAF inhibitors through in silico screening” (J Med Chem, 2008), this text covers inhibition and IC50 for 32 molecules.

The target of the first assay is T1, Serine/threonine-protein kinase B-raf (Homo sapiens, UniProt P15056). The assay is described as follows: Inhibition of human cloned wild type BRAF at 50 uM by ELISA-based MEK phosphorylation assay.
T1 sequence (P15056 whole entry): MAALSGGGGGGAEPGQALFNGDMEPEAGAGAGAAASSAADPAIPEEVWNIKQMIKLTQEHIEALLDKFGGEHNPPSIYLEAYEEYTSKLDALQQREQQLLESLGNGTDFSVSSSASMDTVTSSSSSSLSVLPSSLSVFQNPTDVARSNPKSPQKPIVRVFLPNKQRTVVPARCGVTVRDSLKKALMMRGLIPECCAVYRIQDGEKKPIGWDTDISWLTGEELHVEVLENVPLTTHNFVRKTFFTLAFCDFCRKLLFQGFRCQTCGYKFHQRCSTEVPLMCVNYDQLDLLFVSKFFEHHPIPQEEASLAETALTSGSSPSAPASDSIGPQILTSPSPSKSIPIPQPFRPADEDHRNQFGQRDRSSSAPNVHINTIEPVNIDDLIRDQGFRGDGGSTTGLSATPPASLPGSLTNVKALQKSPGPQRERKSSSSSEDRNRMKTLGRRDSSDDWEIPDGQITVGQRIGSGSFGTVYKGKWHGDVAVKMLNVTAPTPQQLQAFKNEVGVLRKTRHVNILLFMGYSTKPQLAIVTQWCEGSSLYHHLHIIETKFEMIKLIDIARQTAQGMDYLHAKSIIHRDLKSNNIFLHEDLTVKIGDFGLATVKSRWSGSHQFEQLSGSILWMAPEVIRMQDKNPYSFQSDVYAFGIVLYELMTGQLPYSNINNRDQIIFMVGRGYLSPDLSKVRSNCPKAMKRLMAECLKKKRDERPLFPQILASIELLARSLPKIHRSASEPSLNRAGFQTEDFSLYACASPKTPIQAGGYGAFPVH
Turning to `Cn1c(=O)[nH]c(=O)c2c1nc(S)n2Cc1ccc(Cl)cc1`, the inhibition (in general, the relative decrease from the control value, in per cent) worked out at 90%.

Another assay addresses T1, Serine/threonine-protein kinase B-raf.
Description: Inhibition of human cloned wild type BRAF by ELISA-based MEK phosphorylation assay
For the molecule `O=C(Cn1c2ccccc2n2ncnc12)c1cccs1`, the IC50 (commonly the concentration at which inhibition is half-maximal) was above 100 µM.
The same measure, in the same setting: in the case of `COc1cc(C2C(C#N)=C(N)OC3=C2C(=O)CCC3)ccc1Cn1nc(C)c([N+](=O)[O-])c1C` (stereo not drawn) it was above 100 µM; in that of `COc1ccc(OC)c(C(O)c2coc3ccc(O)c(CN4CCOCC4)c23)c1` (stereo not drawn), above 100 µM.
Turning to `CSc1nc2c(c(=O)[nH]c(=O)n2C)n1Cc1ccccc1`, the IC50 was found to be 30.1 µM.
In turn, `O=C(NC(C(=O)c1ccccc1)N1CCOCC1)c1cccs1` (stereo not drawn) returned an IC50 above 100 µM.
As to `Cn1c(=O)[nH]c(=O)c2c1nc(N/N=C\c1cccc([N+](=O)[O-])c1)n2Cc1ccccc1`, the IC50 was above 50 µM.
On the same count and under the same terms, in the case of `Cc1ccc(C2CC(c3ccccc3)=NN2C(=O)CN2CCOCC2)o1` (stereo not drawn) it was above 100 µM.
As to `CC1Nc2nc(NC(=O)c3ccc[n+](C)c3)[nH]c(=O)c2N(C(=O)c2ccc[n+](C)c2)C1C` (stereo not drawn), the IC50 is 29.4 µM.
Molecule `Cc1cc(C)n(-c2nc3c(c(=O)n(C)c(=O)n3C)n2Cc2ccccc2)n1` had an IC50 of 57.7 µM.
Regarding `Cc1cccc(C)c1NC(=O)CSc1nnc(CN2CCOCC2)n1C`, the IC50 was above 100 µM.
Consider `COc1cccc(N2C(=O)CC(N3CCN(Cc4ccccc4)CC3)C2=O)c1` (stereo not drawn), for which the IC50 was above 100 µM.
Take `Cc1cc(C2C(C(=O)c3ccc4c(c3)OCCO4)=C(O)C(=O)N2CCCn2ccnc2)co1` (stereo not drawn): the IC50 is above 100 µM.
On the same count and under the same terms, in the case of `CCN(CC)Cc1c(C(=O)N/N=C/c2ccco2)nnn1-c1nonc1N` it was above 100 µM.
With `CN1CCN(CC(=O)N2N=C(c3cccs3)CC2c2ccco2)CC1` (stereo not drawn), the 50% inhibitory concentration (IC50) is above 100 µM.
`Cn1c(=O)[nH]c(=O)c2c1[nH]c(=S)n2Cc1ccc(Cl)cc1` showed an IC50 of 2.1 µM.
Turning to `C/C(Cl)=C/Cn1c(N/N=C(/C)c2ccc([N+](=O)[O-])cc2)nc2c1c(=O)[nH]c(=O)n2C`, the IC50 was 17.4 µM.
Still for that read-out and setting: in the case of `COc1cccc(C2CC(C(F)(F)F)n3ncc(C(=O)Nc4ccc(OC)cc4OC)c3N2)c1` (stereo not drawn) it was above 100 µM; in that of `CN1CCN(Cc2c3c(c(CN4CCN(C)CC4)c4c2CCC4)CCC3)CC1`, above 100 µM.
For `COc1cc(/C=N/NC(=O)CN2CCN(c3ccc(F)cc3)CC2)ccc1O`, the IC50 is above 100 µM.
With `Cn1c(=O)[nH]c(=O)c2c1nc(N/N=C\c1ccc([N+](=O)[O-])cc1)n2Cc1ccccc1`, the IC50 was determined as 57.9 µM.
For the molecule `Cn1c(=O)n(Cc2ccccc2)c(=O)c2c1nc(SCCO)n2Cc1ccccc1`, the IC50 is 1.72 µM.
Regarding `Cn1c(=O)[nH]c(=O)c2c1nc(SCC(N)=O)n2Cc1cccc(Br)c1`, the IC50 stood at 11.1 µM.
Molecule `COc1ccccc1N1C(=O)CC(N2CCC(C(N)=O)CC2)C1=O` (stereo not drawn) gave an IC50 above 100 µM.
The same measure, in the same setting: in the case of `COc1ccc(CN2CCCN(Cc3ccc(OC)cc3)C2c2cccc(C)n2)cc1` it was above 100 µM; in that of `C/C(Cl)=C\CSc1nc2c(c(=O)n(Cc3ccccc3)c(=O)n2C)n1Cc1ccccc1`, 10.9 µM.
Regarding `C=CCn1c(N/N=C\c2cccc([N+](=O)[O-])c2)nc2c1c(=O)[nH]c(=O)n2C`, inhibition was half-maximal at 37.5 µM (IC50).
The molecule `CCN1CCN(Cc2nc3cc(Cl)ccc3n2Cc2ccccc2)CC1` returned an IC50 above 100 µM.
Same read-out and setting: in the case of `C/C(=N/Nc1nc2c(c(=O)[nH]c(=O)n2C)n1Cc1ccccc1)c1ccc([N+](=O)[O-])cc1` it was 4.6 µM; in that of `C/C(=N/Nc1nc2c(c(=O)[nH]c(=O)n2C)n1Cc1ccccc1)c1ccccc1`, 11.4 µM; in that of `C/C(Cl)=C\CSc1nc2c(c(=O)[nH]c(=O)n2C)n1CC(O)CCc1ccccc1` (stereo not drawn), 3.75 µM.
The molecule `CC(=O)c1c(C)nn2c3ccccc3n(CCN3CCOCC3)c12` yielded an IC50 above 100 µM.

The target in another assay is Phosphatidylinositol 4,5-bisphosphate 3-kinase catalytic subunit gamma isoform (Homo sapiens, UniProt P48736). The assay is described as follows: Inhibition of human recombinant PI3Kgamma catalytic domain.
Chain of Phosphatidylinositol 4,5-bisphosphate 3-kinase catalytic subunit gamma isoform (P48736 whole entry, the tested form may be a part, canonical isoform): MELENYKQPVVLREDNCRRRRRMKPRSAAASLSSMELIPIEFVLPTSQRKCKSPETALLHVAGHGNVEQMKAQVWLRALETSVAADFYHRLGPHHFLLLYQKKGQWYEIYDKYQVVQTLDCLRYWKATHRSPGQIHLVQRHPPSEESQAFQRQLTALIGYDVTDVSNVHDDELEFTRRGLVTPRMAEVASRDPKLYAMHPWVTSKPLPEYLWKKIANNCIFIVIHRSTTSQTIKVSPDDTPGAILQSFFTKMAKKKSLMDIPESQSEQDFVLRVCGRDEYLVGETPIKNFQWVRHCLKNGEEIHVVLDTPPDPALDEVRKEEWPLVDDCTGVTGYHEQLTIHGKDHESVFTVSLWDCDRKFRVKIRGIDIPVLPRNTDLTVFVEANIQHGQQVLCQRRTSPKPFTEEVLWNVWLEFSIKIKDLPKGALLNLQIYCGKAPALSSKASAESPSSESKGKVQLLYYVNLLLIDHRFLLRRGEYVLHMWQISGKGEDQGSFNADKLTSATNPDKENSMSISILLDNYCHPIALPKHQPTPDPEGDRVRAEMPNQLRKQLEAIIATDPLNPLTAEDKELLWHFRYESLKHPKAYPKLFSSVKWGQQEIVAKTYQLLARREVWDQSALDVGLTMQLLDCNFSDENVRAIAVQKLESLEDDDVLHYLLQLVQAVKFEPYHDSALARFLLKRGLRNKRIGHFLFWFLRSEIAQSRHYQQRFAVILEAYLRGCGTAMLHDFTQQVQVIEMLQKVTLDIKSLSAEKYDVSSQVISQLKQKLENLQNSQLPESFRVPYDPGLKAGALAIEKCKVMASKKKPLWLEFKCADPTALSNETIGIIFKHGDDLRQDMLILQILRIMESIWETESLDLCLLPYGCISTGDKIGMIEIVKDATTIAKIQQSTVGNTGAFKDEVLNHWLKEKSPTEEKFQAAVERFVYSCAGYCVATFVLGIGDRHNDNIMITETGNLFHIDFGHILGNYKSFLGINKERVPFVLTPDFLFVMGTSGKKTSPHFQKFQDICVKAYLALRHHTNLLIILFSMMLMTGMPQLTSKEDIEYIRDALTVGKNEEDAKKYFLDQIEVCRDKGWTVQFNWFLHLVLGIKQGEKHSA
Take `Cn1c(=O)n(Cc2ccccc2)c(=O)c2c1nc(SCCO)n2Cc1ccccc1`: the IC50 is 25 µM.
